In ChEMBL document CHEMBL1201862, “PubChem BioAssay data set” (2004):
Active and inactive are the calls of the source.

Tests used:
[1] = growth induction of Burl-1 ts yeast mutant, dose response, counter-screen for SUMOylation pathway inhibitor project, whole organism, S. cerevisiae, luminescence (AID 463199); format: functional
[2] = target: T1, Corticotropin-releasing factor receptor 2/Corticotropin-releasing factor-binding protein (Homo sapiens, UniProt P24387+Q13324); test: Dose Response confirmation of uHTS hits for small molecule antagonists of the CRF-binding protein and CRF-R2 receptor complex.; format: functional; settings: read-out: IC50_Mean
T1 sequence (Q13324 whole entry): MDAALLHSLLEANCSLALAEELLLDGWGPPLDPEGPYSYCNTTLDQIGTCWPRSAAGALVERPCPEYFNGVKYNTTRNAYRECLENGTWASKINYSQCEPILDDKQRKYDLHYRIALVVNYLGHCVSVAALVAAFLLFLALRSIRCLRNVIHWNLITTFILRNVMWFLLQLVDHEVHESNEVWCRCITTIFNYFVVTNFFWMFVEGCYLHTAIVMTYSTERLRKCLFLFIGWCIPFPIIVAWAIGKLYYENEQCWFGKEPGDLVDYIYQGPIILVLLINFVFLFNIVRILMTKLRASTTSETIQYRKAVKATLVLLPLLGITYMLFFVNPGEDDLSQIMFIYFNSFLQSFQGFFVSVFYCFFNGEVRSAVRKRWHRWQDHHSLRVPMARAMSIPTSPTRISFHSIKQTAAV
T1 sequence (P24387 whole entry): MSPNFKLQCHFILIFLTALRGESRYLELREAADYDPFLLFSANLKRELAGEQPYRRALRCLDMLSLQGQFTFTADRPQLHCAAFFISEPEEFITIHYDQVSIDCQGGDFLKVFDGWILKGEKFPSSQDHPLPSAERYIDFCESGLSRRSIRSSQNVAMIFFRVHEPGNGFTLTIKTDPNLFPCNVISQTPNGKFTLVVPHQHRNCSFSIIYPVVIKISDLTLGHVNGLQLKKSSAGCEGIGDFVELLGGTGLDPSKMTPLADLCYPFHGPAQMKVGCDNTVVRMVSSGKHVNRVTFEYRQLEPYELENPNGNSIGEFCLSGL

[3] = target: T1, Corticotropin-releasing factor receptor 2/Corticotropin-releasing factor-binding protein; test: activators of CRF receptor 2 with binding protein – uHTS hits, confirmation (AID 602473); format: functional; settings: read-out: EC50_Mean
[4] = target: T2, RNA-binding protein pos-1 (Caenorhabditis elegans, UniProt G5EF15); test: inhibitors of POS-1/mex-3 RNA binding, dose response, biochemical, fluorescence polarization (AID 1964);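 further: purified POS-1 fused to maltose binding protein made in E. coli; potency of compounds blocking POS-1 binding to fluorescent RNA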
T2 sequence (G5EF15 whole entry): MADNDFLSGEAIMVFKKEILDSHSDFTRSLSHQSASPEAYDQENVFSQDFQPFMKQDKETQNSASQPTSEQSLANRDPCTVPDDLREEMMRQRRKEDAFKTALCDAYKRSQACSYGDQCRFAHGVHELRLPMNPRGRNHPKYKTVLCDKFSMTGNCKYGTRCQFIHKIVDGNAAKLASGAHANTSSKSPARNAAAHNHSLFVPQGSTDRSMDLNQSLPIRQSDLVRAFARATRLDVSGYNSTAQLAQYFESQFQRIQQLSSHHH

[5] = target: T3, Zinc finger protein mex-5 (Caenorhabditis elegans, UniProt Q9XUB2); test: MEX-5/TCR-2 RNA interaction inhibitors, dose response, biochemical, C. elegans, fluorescence polarization (AID 1960)
T3 sequence (Q9XUB2 whole entry): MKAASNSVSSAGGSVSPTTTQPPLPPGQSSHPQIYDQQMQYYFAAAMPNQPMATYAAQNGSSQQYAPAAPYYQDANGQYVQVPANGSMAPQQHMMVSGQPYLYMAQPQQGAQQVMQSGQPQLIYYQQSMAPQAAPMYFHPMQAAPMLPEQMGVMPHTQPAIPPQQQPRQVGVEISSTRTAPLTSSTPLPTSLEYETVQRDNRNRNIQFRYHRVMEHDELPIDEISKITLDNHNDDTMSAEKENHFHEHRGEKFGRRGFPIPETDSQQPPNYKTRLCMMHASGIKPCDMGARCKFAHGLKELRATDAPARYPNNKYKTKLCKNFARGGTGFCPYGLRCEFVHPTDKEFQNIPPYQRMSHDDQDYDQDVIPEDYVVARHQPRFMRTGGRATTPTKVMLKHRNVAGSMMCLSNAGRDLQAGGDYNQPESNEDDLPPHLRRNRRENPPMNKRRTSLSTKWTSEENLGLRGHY

[6] = inhibitors of intracellular T. cruzi replication, confirmation, NIH3T3 host cells, beta-gal luminescence (AID 2044); format: functional, cell-based;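 further: intracellular parasites grown in NIH/3T3 mouse fibroblasts as host cells; luminescent beta-galactosidase reporter signal from transgenic T. cruzi replicating inside host cells; inhibitors lower the luminescence signal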
[7] = cytotoxicity toward NIH3T3 fibroblasts, dose response, counter-screen, cell-based, ATP luminescence, mouse fibroblasts (AID 2010); format: functional;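 further: cells exposed to compound for about 90 hours before reading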
[8] = target: Intestinal-type alkaline phosphatase (Mus musculus, UniProt P24822); test: PubChem AID 488874; format: functional
[9] = target: T4, Intestinal-type alkaline phosphatase (Homo sapiens, UniProt P09923); test: human IAP inhibitors, dose response, biochemical, luminescent, uHTS hits, set 2 (AID 488793); format: functional
[10] = target: T4, Intestinal-type alkaline phosphatase; test: Dose Response confirmation of uHTS hits from a small molecule inhibitors of human intestinal alkaline phosphatase via a luminescent assay. [Related pubchem assays (depositor defined):AID2544, AID2574]; format: functional
[11] = target: T5, Alkaline phosphatase, tissue-nonspecific isozyme (Homo sapiens, UniProt P05186); test: inhibition of tissue-nonspecific alkaline phosphatase – biochemical, dose response (AID 488882); format: functional
T5 sequence (P05186 whole entry): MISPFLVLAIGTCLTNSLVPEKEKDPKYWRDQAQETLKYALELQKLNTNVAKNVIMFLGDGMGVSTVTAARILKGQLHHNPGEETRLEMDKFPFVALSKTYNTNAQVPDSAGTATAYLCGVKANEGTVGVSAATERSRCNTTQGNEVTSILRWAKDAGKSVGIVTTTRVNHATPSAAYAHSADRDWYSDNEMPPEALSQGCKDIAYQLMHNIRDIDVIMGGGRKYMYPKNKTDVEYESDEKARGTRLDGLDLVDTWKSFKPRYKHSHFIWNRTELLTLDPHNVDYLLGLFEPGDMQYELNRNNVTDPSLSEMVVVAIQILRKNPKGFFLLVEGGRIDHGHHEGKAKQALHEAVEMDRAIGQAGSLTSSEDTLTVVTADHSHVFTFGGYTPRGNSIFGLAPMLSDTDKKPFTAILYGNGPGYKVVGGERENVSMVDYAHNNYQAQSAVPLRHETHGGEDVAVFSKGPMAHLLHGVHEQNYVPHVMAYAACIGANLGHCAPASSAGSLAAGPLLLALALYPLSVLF

INS1 = test: beta cell apoptosis inhibitors, cytokine rescue, dose response, luminescence, retest (AID 449756); format: functional, cell-based; settings: Rattus norvegicus;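 further: cell death triggered by IL-1 beta plus TNF-alpha plus IFN-gamma mixture; protective hits raise ATP signal compared with cytokine alone wells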
[12] = target: T6, DNA repair and recombination protein RAD54-like (Homo sapiens, UniProt Q92698); test: inhibitors of human RAD54 branch migration, confirmation, biochemical, fluorescence, cherry-picked samples, dose series (AID 651657); format: functional
T6 sequence (Q92698 whole entry): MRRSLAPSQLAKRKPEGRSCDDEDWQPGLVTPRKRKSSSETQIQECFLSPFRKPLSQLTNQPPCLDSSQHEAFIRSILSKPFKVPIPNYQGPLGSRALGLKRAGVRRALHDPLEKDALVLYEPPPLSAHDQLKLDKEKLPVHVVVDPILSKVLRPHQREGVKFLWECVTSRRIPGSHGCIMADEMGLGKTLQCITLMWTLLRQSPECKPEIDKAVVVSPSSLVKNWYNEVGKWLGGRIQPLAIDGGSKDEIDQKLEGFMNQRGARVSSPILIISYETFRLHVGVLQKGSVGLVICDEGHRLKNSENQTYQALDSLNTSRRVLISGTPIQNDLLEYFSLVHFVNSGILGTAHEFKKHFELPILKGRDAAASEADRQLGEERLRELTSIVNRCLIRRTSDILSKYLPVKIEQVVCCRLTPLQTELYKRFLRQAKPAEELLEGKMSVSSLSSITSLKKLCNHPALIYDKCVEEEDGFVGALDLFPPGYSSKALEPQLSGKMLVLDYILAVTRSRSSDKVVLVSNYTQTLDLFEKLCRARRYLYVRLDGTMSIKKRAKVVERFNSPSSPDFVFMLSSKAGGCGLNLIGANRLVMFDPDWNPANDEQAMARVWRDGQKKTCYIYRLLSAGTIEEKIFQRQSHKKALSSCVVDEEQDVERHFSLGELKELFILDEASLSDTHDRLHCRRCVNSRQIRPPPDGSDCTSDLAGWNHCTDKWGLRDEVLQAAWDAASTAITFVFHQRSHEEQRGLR

[13] = target: SWI/SNF-related matrix-associated actin-dependent regulator of chromatin subfamily A member 2 (Homo sapiens, UniProt P51531); test: Luminescence-based cell-based high throughput dose response assay to identify activators of the function of SWI/SNF related, matrix associated, actin dependent regulator of chromatin, subfamily a, member 2 (SMARCA2, BRM).; format: functional
[14] = Counterscreen for activators of the function of SWI/SNF related, matrix associated, actin dependent regulator of chromatin, subfamily a, member 2 (SMARCA2, BRM): Luminescence-based cell-based high throughput dose response assay to identify non-selective compounds using the VP16 reporter assay.; format: functional
[15] = target: T7, DNA repair protein RAD52 homolog (Homo sapiens, UniProt P43351); format: functional, biochemical
T7 sequence (P43351 whole entry): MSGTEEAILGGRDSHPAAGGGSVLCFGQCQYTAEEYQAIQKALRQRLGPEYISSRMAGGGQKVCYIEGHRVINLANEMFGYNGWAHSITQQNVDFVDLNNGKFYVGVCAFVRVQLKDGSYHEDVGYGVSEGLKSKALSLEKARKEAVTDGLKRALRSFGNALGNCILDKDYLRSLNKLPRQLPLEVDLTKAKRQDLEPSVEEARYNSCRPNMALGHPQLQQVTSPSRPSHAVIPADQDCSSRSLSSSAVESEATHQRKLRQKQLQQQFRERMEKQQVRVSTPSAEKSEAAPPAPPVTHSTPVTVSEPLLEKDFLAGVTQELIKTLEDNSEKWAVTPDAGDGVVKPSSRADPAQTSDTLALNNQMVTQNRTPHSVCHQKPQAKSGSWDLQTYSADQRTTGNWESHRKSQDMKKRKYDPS

Candida albicans = test: growth inhibition of resistant C. albicans, dose response, CaCi-8, fluconazole, Alamar Blue, dry powder (AID 488807); format: functional, organism-based
[16] = target: T8, Ubiquitin-conjugating enzyme E2 N (Homo sapiens, UniProt P61088); format: functional;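 further: Dose-response confirmation in a TR-FRET assay detecting UBC13-driven polyubiquitin chain formation, inhibition measured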
T8 sequence (P61088 whole entry): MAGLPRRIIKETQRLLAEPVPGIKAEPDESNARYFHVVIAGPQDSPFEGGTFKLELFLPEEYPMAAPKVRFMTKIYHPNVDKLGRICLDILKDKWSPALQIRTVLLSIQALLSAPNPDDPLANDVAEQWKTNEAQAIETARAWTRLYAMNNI

[17] = target: Hepatocyte nuclear factor 4-alpha (Homo sapiens, UniProt P41235); format: functional, cell-based;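 further: biochemical luminescence-based dose-response counterscreen measuring inhibition of HNF4 dimerization, run alongside a screen for blockers of ABHD5–perilipin-5 interaction; split luciferase complementation of HNF4 fusion proteins in cell lysate measuring dimerization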
Cytochrome P450 1A2 = target: T9, Cytochrome P450 1A2 (Homo sapiens, UniProt P05177);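 further: PubChem cytochrome P450 panel assay, CYP1A2 panel member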
T9 sequence (P05177 whole entry): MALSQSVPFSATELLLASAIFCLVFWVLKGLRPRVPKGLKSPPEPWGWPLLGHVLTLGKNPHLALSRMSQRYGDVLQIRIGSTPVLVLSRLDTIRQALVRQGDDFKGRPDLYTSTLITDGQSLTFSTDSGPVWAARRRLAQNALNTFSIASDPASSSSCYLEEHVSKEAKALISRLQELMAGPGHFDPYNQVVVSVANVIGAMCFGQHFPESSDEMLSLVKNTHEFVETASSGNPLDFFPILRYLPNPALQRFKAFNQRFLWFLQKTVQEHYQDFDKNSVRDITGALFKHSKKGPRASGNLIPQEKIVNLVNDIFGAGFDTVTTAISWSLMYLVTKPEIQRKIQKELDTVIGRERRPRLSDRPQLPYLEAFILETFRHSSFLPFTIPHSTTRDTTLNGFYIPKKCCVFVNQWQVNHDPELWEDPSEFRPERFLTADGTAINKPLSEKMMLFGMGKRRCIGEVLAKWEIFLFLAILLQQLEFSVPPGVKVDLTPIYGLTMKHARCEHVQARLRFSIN

[18] = target: DNA (cytosine-5)-methyltransferase 1 (Homo sapiens, UniProt P26358); test: DNMT1 methyltransferase inhibitors, confirmation, biochemical, fluorescent molecular beacon (AID 602386); format: functional
[19] = target: E3 ubiquitin-protein ligase UHRF1 (Homo sapiens, UniProt Q96T88); test: Counterscreen for inhibitors of 5-meCpG-binding domain protein 2 (MBD2): TRFRET-based biochemical high throughput dose response assay to identify inhibitors of binding of ubiquitin-like with PHD and ring finger domains 1 (UHRF1) to methylated oligonucleotide.
HEK293 [20] = test: cells; settings: Homo sapiens
HEK293 [21] = test: cells; settings: Homo sapiens; remark: listed apart in the source

T4 sequence (P09923 whole entry): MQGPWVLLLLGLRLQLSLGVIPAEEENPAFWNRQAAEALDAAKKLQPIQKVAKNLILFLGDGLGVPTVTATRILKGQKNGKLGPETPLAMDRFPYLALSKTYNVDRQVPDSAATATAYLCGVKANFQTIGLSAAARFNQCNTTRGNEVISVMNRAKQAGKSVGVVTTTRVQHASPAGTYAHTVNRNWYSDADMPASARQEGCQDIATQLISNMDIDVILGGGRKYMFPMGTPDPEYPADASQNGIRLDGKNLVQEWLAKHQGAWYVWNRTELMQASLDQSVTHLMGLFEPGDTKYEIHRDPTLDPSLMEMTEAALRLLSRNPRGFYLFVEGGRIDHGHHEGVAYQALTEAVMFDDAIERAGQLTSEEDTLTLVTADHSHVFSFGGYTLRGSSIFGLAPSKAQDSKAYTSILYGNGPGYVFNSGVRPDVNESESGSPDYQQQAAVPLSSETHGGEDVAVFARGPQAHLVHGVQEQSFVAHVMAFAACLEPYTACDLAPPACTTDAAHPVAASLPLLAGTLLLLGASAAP
Chain of SWI/SNF-related matrix-associated actin-dependent regulator of chromatin subfamily A member 2 (P51531 whole entry): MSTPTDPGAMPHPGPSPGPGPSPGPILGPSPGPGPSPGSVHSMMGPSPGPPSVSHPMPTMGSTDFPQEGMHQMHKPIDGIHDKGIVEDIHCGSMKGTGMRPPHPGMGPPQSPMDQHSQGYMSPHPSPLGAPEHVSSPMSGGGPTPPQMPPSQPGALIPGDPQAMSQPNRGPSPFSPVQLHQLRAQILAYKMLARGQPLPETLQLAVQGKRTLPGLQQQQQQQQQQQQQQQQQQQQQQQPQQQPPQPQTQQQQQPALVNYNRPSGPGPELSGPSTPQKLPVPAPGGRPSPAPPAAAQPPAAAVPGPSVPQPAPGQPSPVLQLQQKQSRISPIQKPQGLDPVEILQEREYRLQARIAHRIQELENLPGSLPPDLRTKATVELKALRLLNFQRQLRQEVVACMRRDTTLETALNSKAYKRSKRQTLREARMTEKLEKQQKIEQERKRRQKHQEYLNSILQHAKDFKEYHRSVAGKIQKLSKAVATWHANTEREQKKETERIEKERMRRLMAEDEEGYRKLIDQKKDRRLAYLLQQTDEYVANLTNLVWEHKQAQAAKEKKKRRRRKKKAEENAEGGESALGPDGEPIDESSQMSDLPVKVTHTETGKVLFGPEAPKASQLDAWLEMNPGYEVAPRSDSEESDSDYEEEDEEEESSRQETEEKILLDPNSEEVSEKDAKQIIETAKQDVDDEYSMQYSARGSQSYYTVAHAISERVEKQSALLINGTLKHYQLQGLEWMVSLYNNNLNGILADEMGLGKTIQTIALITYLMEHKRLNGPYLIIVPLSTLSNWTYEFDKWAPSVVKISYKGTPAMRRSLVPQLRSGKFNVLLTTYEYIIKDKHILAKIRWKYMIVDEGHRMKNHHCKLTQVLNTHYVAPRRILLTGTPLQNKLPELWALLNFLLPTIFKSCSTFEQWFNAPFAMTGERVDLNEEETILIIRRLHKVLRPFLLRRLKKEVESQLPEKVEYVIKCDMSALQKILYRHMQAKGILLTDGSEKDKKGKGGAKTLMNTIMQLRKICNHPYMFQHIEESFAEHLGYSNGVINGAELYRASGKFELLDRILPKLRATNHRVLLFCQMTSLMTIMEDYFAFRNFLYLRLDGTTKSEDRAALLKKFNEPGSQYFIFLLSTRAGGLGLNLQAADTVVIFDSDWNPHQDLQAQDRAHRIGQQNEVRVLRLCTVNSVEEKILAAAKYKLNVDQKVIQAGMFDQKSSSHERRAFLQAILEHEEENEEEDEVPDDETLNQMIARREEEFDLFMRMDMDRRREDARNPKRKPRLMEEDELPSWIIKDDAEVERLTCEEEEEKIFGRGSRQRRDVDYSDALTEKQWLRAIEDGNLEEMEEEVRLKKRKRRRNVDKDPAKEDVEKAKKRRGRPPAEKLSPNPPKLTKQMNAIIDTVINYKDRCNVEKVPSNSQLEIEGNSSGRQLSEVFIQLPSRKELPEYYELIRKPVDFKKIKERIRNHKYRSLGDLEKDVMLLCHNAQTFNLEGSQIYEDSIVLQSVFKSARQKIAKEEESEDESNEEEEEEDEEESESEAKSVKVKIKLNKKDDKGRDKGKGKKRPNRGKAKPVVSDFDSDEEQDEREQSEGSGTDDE
Chain of Intestinal-type alkaline phosphatase (Mus musculus, UniProt P24822) (P24822 whole entry): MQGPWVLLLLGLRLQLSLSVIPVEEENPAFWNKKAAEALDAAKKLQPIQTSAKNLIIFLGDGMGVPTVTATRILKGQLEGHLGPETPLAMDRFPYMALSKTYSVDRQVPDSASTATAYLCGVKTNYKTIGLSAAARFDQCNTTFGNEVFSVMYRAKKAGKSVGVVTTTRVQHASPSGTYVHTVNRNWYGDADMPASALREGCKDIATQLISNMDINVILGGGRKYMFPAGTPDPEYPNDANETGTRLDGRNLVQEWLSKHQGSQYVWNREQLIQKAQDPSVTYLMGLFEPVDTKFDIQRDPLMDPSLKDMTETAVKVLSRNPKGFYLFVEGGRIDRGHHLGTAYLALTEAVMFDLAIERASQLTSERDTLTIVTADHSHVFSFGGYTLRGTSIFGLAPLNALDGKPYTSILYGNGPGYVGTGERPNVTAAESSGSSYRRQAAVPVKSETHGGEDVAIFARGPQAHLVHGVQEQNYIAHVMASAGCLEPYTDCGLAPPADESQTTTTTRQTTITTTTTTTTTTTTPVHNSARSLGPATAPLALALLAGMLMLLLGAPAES
Chain of E3 ubiquitin-protein ligase UHRF1 (Q96T88 whole entry, the tested form may be a part): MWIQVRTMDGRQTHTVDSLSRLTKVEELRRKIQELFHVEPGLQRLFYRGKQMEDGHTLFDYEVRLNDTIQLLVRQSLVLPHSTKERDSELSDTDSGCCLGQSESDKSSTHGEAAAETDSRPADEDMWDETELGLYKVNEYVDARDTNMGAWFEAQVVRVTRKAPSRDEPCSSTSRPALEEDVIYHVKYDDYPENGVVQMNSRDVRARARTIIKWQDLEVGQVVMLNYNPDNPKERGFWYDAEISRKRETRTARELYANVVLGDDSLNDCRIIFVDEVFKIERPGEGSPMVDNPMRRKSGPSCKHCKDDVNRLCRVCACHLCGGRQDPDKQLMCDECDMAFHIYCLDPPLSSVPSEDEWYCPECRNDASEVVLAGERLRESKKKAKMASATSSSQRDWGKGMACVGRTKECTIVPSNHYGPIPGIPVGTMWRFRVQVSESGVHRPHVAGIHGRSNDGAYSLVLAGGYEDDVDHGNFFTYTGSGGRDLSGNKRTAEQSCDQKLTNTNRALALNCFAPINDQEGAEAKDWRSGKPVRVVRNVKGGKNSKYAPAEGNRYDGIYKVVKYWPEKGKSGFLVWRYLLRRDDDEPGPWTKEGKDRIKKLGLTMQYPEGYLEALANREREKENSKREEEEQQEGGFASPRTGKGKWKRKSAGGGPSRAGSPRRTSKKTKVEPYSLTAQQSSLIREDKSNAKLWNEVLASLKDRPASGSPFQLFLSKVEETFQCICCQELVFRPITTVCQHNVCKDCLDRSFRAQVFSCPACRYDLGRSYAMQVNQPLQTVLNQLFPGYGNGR
Chain of DNA (cytosine-5)-methyltransferase 1 (P26358 whole entry, the tested form may be a part): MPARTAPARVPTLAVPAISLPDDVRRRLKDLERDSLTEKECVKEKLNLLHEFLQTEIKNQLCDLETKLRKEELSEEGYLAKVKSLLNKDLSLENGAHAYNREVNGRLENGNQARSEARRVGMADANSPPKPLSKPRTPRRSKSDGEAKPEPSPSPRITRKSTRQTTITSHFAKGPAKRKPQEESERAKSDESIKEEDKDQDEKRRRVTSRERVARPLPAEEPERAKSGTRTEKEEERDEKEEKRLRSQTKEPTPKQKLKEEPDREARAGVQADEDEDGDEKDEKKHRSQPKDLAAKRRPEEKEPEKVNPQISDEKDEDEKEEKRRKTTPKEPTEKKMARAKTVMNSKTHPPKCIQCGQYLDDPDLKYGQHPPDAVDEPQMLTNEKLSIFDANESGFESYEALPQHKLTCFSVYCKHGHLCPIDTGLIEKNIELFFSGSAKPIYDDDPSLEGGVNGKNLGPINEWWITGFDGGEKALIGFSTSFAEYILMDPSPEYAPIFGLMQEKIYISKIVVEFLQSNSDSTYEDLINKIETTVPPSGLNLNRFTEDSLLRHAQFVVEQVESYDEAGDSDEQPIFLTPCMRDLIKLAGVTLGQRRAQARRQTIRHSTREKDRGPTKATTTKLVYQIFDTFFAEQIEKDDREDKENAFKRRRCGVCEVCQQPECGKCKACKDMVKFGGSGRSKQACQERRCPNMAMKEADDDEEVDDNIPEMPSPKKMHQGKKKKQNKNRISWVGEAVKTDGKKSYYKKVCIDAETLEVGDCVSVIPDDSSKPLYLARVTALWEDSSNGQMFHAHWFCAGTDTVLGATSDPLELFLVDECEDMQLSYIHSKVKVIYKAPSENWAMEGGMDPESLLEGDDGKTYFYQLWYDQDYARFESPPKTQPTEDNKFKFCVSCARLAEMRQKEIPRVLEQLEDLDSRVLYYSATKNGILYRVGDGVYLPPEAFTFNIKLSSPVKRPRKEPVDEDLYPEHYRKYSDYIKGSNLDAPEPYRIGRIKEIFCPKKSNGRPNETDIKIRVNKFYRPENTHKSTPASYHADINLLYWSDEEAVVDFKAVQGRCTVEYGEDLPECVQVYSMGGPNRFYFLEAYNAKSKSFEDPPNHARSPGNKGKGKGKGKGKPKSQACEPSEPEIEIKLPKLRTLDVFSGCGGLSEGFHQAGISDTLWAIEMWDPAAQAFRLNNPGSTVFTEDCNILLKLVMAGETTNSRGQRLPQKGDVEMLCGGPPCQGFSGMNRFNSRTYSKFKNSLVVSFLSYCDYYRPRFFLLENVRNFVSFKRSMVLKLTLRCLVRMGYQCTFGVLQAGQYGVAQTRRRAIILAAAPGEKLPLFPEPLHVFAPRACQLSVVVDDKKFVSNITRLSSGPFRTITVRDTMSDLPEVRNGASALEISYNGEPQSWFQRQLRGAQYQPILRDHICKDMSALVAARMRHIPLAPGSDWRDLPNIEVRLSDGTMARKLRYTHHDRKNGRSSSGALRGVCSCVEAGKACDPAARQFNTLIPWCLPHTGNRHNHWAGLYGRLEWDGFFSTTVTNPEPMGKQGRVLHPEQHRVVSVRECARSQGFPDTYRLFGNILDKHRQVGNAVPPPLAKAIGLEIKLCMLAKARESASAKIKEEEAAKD

Structure (SMILES): CCCCn1c(N)c(N(Cc2ccccc2OC)C(=O)c2c(CC)noc2C)c(=O)[nH]c1=O
- AC50 [1]: 61.2 µM (active)
- IC50 [2]: > 47.1 µM (inactive)
- EC50 [3]: > 53 µM (inactive)

Structure (SMILES): COc1ccc2nc3cc(Cl)ccc3c(Nc3cc(CN4CCCC4)c(O)c(CN4CCCC4)c3)c2n1
- EC50 [4]: 32.2 µM (active)
- EC50 [5]: 22 µM (active)
- EC50 [6]: 0.587 µM (active)
- EC50 [7]: > 16 µM (not active)
- IC50 [8]: 40.5 µM (active)
- IC50 [9]: 10.5 µM (active)
- IC50 [10]: 5.61 µM (active)
- IC50 [11]: 20.3 µM (active)
- AC50 (INS1): 3.38 µM (active)
- AC50 [12]: 0.791 µM (active)
- EC50 [13]: > 3.38 µM (active)
- EC50 [14]: > 91.2 µM (inactive)
- AC50 [15]: < 0.351 µM (active)

Structure (SMILES): COC(=O)Cn1nc(-c2ccccc2)c2cc(Cl)ccc21
- AC50 (Candida albicans): 9.53 µM (active)

Structure (SMILES): CN1[C@@H]2CC[C@H]1C[C@@H](OC1c3ccccc3CCc3ccccc31)C2 [DEPTROPINE]
- IC50 [16]: > 20 µM (inactive)
- IC50 [17]: 10 µM (inactive)
- AC50 (Cytochrome P450 1A2): inactive

Structure (SMILES): c1ccc2c(c1)C1=NCCN1c1ccccc1-2
- IC50 [18]: 9.24 µM (active)
- EC50 [13]: > 3.38 µM (active)
- EC50 [14]: > 91.3 µM (inactive)
- AC50 [15]: 5.19 µM (active)
- IC50 [19]: 37 µM (inactive)
- EC50 (HEK293 [20]): > 59.8 µM (inactive)
- EC50 (HEK293 [21]): > 59.8 µM (inactive)
